The values that follow come from patent US20200008395A1, “METHOD OF USING HUMAN EXCREMENT AND SECRETIONS FOR EARLY DETECTION OF PARKINSON'S DISEASE” (NEURRX, SPC, priority 2017, published 2020).

The nature of test [1]: Regression model of nutritional supplements and PD progression (PRO-PD score). It is filed as in vivo, human. The conditions noted are these: positive report of consistently using supplement over the previous 6 months, adjusted for years since diagnosis; for Mean change in PRO-PD score (SE)*: age, and gender; for Mean change in PRO-PD score (SE)**: age, gender, and income. An excerpt: When the diagnosis comes 10-15 years or more into the disease, the contribution or effectiveness of a disease-modifying therapy is diminished. Conversely, early detection and intervention by disease-modifying therapies can reduce rate of PD progression or delay disease onset. […] As used herein, PRO-PD is the Patient Reported Outcomes in Parkinson's Disease rating scale, which is used to describe PD disease severity among individuals with a clinical diagnosis of PD.
Certain foods and supplements are known to be associated with different rates of PD progression.

For test [2] the following is noted: supplements / pharmaceuticals said to have been shown to slow or reduce progression; cited from earlier work.

Turning to `CN1c2c(nc(N)[nH]c2=O)NCC1CNc1ccc(C(=O)N[C@@H](CCC(=O)O)C(=O)O)cc1` (stereo partly drawn) [5-Methyltetrahydrofolate (5-MTHF), 5-Methyltetrahydrofolate], in test [1], the “Mean change in PRO-PD score (SE)*” value is recorded as −17.1 and the “Mean change in PRO-PD score (SE)**” value is −25.1.
On the same counts, the results for `[Ca+2]` [Calcium] are −6.2 and 12.5.
With `COC1=C(OC)C(=O)C(C/C=C(\C)CC/C=C(\C)CC/C=C(\C)CC/C=C(\C)CC/C=C(\C)CC/C=C(\C)CC/C=C(\C)CC/C=C(\C)CC/C=C(\C)CCC=C(C)C)=C(C)C1=O` [CoQ10, coenzyme Q-10], the “Effect on PD progression (statement in words)” value (“Effect on PD progression” for short) in test [2] is on record as “slow the progression of PD”.
On to `C[C@]12CC[C@H](O)CC1=CC[C@@H]1[C@@H]2CC[C@]2(C)C(=O)CC[C@@H]12` [DHEA, dehydroepiandrosterone], for which the “Effect on PD progression” value in test [2] was “slow the progression of PD”.
As to `N[C@@H](CCC(=O)N[C@@H](CS)C(=O)NCC(=O)O)C(=O)O` [Glutathione, oral, glutathione], in test [2], the “Effect on PD progression” value is “slow the progression of PD”.
Consider `O=C1CC[C@@]2(O)[C@H]3Cc4ccc(O)c5c4[C@@]2(CCN3CC2CC2)[C@H]1O5` [Low-dose naltrexone, naltrexone], for which, in test [2], the “Effect on PD progression” value is “reduce the rate of progression”.
Turning to `NC(=O)C1=CN([C@@H]2O[C@H](COP(=O)(O)OP(=O)(O)OC[C@H]3O[C@@H](n4cnc5c(N)ncnc54)[C@H](O)[C@@H]3O)[C@@H](O)[C@H]2O)C=CC1` [NADH], in test [1], the “Mean change in PRO-PD score (SE)*” value is recorded as −9.7 and the “Mean change in PRO-PD score (SE)**” value is reported as −25.2.
As for `N[C@@H](Cc1ccc(O)c(O)c1)C(=O)O` [levodopa], in test [2], the “Effect on PD progression” value is recorded as “reduce the rate of progression”.
On to `C#CCN[C@@H]1CCc2ccccc21` [rasagiline], for which, in test [2], the “Effect on PD progression” value is listed as “reduce the rate of progression”.
As for `C#CCN(C)[C@H](C)Cc1ccccc1` [selegeline], the “Effect on PD progression” value in test [2] was “reduce the rate of progression”.
Consider Vitamin D, for which, in test [1], the “Mean change in PRO-PD score (SE)*” value is listed as −26.1 and the “Mean change in PRO-PD score (SE)**” value was −3.6.
